What is called IC50 is the concentration at which inhibition is half-maximal.

IC50 data for one substance are collected here from article PMC4030628 (Cancer research, 2013).

The target in the test is STAT3 (Homo sapiens, UniProt P40763). Kind of test: fluorescence polarization competition with 5-FAM-GpYLPQTV phosphopeptide. The class given is binding. Background: Fluorescence polarisation rises when a labelled molecule tumbles more slowly, as on binding a larger partner.
Chain of STAT3 (P40763 2-770): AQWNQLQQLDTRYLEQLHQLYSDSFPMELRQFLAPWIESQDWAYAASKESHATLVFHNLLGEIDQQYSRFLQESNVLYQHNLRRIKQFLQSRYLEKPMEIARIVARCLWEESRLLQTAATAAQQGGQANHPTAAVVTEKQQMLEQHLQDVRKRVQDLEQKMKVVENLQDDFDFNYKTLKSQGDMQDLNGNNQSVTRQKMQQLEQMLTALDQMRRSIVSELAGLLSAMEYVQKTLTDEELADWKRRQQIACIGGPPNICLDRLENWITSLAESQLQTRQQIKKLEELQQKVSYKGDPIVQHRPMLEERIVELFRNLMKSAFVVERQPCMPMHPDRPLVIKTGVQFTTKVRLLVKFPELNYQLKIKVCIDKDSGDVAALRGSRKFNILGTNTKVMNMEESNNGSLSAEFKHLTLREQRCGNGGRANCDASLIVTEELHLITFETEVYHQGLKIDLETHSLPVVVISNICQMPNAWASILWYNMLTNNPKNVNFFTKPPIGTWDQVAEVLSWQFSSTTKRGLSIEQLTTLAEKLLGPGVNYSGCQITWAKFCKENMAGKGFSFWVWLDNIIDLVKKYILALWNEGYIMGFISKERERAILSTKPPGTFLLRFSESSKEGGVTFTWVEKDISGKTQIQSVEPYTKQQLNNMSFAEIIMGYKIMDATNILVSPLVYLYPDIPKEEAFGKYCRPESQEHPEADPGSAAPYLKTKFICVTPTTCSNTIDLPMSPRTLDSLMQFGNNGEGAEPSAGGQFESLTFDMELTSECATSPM

On to S3I-1757, for which the IC50 came to 13.5 ± 0.5 µM.
